Source: paper PMC5113775, “Mirror‐Image Packing Provides a Molecular Basis for the Nanomolar Equipotency of Enantiomers of an Experimental Herbicide” (Angewandte Chemie (International Ed. in English), 2016)

Legend:
At ΔN IGPD2 construct B = biological target: T1, At ΔN IGPD2 construct B (Arabidopsis thaliana, UniProt O23346); test: in vitro enzyme inhibition assay; crystal structure; format: biochemical
T1 construct: gene HISN5B; N-terminally truncated (delta-N) construct B, shorter than construct A; borders only in supplement; Mn2+ enzyme; EC 4.2.1.19

At ΔN IGPD2 construct A = biological target: T2, At ΔN IGPD2 construct A (Arabidopsis thaliana, UniProt O23346); test: crystal structure, […] Å; format: binding; conditions: active site, two manganese ions; racemate
T2 construct: gene HISN5B; N-terminally truncated (delta-N) construct A, longer than construct B; borders only in supplement
T2 sequence (O23346 53-272, stated change not applied): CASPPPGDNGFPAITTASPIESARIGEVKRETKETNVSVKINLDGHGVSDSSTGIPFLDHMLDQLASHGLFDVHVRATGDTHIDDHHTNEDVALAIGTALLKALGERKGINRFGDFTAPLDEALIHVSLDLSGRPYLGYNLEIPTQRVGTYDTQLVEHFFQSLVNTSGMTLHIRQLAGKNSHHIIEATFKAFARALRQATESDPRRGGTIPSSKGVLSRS

T1 sequence (O23346 69-272, stated change not applied): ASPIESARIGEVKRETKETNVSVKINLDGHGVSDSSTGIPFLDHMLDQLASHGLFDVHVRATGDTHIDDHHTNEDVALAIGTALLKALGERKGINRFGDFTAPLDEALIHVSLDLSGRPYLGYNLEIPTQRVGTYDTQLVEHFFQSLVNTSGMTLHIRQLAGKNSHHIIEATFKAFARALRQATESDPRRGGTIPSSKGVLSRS

Structure (SMILES) | Ki (At ΔN IGPD2 construct B) | crystal structure, 1.85 Å (At ΔN IGPD2 construct A)
O=P(O)(O)C[C@@H](O)Cn1cncn1 [(S)‐C348, 2‐hydroxy‐3‐(1,2,4‐triazol‐1‐yl) propylphosphonate] | 25 ± 3 nM | 
O=P(O)(O)CC(O)Cn1cncn1 (racemic) [C348, 2‐hydroxy‐3‐(1,2,4‐triazol‐1‐yl) propylphosphonate] |  | grown in the presence of a racemate of C348 and the structure
O=P(O)(O)C[C@H](O)Cn1cncn1 [(R)‐C348, 2‐hydroxy‐3‐(1,2,4‐triazol‐1‐yl) propylphosphonate] | 15 ± 5 nM | 
